The record followed here is US10532986B2, “Cyclic compound acting as PDE4 inhibitor” (MEDSHINE DISCOVERY INC., priority 2016, dated 2020).

This assay deals with T1, Recombinant human PDE4B (Homo sapiens, UniProt Q07343).
T1 construct: amino acid 305-end; GST (N); made in house; host or cells: Sf9 insect cells (baculovirus)
T1 sequence (Q07343 305-736 limits assumed): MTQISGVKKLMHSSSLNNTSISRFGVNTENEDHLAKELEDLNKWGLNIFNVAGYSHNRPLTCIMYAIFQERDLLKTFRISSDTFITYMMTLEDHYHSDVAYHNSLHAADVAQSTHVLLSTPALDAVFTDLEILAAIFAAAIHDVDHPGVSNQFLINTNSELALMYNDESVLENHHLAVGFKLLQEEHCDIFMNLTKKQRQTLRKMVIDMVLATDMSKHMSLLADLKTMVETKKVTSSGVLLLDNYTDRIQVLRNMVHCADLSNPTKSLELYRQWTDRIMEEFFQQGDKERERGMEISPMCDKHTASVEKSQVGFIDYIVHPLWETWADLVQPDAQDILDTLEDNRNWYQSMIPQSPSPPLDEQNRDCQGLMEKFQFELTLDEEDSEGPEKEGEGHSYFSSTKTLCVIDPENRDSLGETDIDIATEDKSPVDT
The assay is described as follows: Inhibitory activity of the compounds against PDE 4B (fluorescence polarization, Transcreener AMP2/GMP2). Type of assay: biochemical. The settings on record: recombinant human PDE4B (aa 305-end, GST tag); 1 μM cAMP; 1 hour at room temperature. The method, then:
Inhibitory activity of the compounds against PDE 4B
The assay is based on the fluorescence polarization measuring AMP/GMP production as a result of the enzyme activity by displacement of Tracer binding to the AMP/GMP antibody.
10 mM Tris-HCl (pH 7.5), 5 mM MgCl2, 0.01% Brij 35, 1 mM DTT and 1% DMSO.
Recombinant human PDE4B (Gene accession number: NM_002600; amino acid 305-end) was expressed by baculovirus in Sf9 insect cells using an N-terminal GST tag. MW=78 kDa.
Transcreener® AMP^2/GMP^2 antibody and AMP^2/GMP^2 AlexaFluor 633 tracer
i) Recombinant human PDE4B and the enzyme substrate (1 μM cAMP) were dissolved in the newly-prepared buffer solution, respectively.
ii) The PDE4B buffer solution defined as above was transferred into the reaction wells.
iii) The compound which was dissolved in 100% DMSO was added to the reaction wells of the PDE4B buffer solution by Acoustic technology (Echo550; nanoliter range) and incubated at room temperature for 10 minutes.
iv) The enzymatic buffer solution was then added to the reaction wells defined as above to initiate the reaction.
v) The reaction was incubated at room temperature for 1 hour.
vi) The reaction was terminated by adding detecting mixture (Transcreener® AMP^2/GMP^2 antibody and AMP^2/GMP^2 AlexaFluor 633 tracer) and incubated for 90 minutes with gentle mixing. The measurement range of fluorescence polarization is Ex/Em=620/688.
The fluorescence polarization signal was converted into nM based on the AMP/GMP standard curve and the percent enzyme activity relative to DMSO calculated by Excel. GraphPad Prism was used to plot the curves (Drawing Medicine Icon)
For orientation: IC50 means the concentration that inhibits the measured activity by half. `CCOc1cc([C@@H](CS(C)(=O)=O)n2c(=O)[nH]c3cc(Br)cc(F)c32)ccc1OC` [WX001]: the IC50 amounted to 3.68 nM.

In the case of `CCOc1cc([C@@H](CS(C)(=O)=O)n2c(=O)[nH]c3cc(C(F)(F)F)ccc32)ccc1OC` [WX002], the IC50 worked out at 6.27 nM.

As for `CCOc1cc([C@@H](CS(C)(=O)=O)n2c(=O)[nH]c3cc(Cl)ccc32)ccc1OC` [WX003], the IC50 turned out to be 2.22 nM.

Turning to `CCOc1cc([C@@H](CS(C)(=O)=O)n2c(=O)[nH]c3cc(F)ccc32)ccc1OC` [WX004], the 50% inhibitory concentration (IC50) stood at 11.5 nM.

Turning to `CCOc1cc([C@@H](CS(C)(=O)=O)n2c(=O)[nH]c3cc(F)cc(F)c32)ccc1OC` [WX005], the IC50 stood at 92.4 nM.

Take `CCOc1cc([C@@H](CS(C)(=O)=O)n2c(=O)[nH]c3cc(C(F)(F)F)cc(F)c32)ccc1OC` [WX006]: the IC50 came to 25.7 nM.

As to `CCOc1cc([C@@H](CS(C)(=O)=O)n2c(=O)[nH]c3c(Br)cccc32)ccc1OC` [WX007], the 50% inhibitory concentration (IC50) stood at 9.2 nM.

In the case of `CCOc1cc([C@@H](CS(C)(=O)=O)n2c(=O)[nH]c3c(Cl)cccc32)ccc1OC` [WX008], the IC50 was found to be 22.3 nM.

Regarding `CCOc1cc([C@@H](CS(C)(=O)=O)n2c(=O)[nH]c3cc(Br)ccc32)ccc1OC` [WX009], the IC50 amounted to 6.29 nM.

Turning to `CCOc1cc([C@@H](CS(C)(=O)=O)n2c(=O)[nH]c3ccccc32)ccc1OC` [WX010], the IC50 was determined as 19.5 nM.

`CCOc1cc([C@@H](CS(C)(=O)=O)n2c(=O)[nH]c3cc(-c4ccccc4F)ccc32)ccc1OC` [WX011]: the IC50 came out at 0.526 nM.

For the compound `CCOc1cc([C@@H](CS(C)(=O)=O)n2c(=O)[nH]c3cc(-c4cccc(F)c4)ccc32)ccc1OC` [WX012], the IC50 worked out at 2.18 nM.

Consider `CCOc1cc([C@@H](CS(C)(=O)=O)n2c(=O)[nH]c3cc(-c4ccc(F)cc4)ccc32)ccc1OC` [WX013], for which the half-maximal inhibitory concentration (IC50) was determined as 6.11 nM.

Regarding `CCOc1cc([C@@H](CS(C)(=O)=O)n2c(=O)[nH]c3cc(-c4ccccc4C)ccc32)ccc1OC` [WX014], the IC50 was determined as 0.606 nM.

Take `CCOc1cc([C@@H](CS(C)(=O)=O)n2c(=O)[nH]c3cc(-c4ccccc4Cl)ccc32)ccc1OC` [WX015]: the IC50 came to 0.676 nM.

In the case of `CCOc1cc([C@@H](CS(C)(=O)=O)n2c(=O)[nH]c3cc(-c4ccccc4OC)ccc32)ccc1OC` [WX016], the IC50 is under 0.5 nM.

As to `CCOc1cc([C@@H](CS(C)(=O)=O)n2c(=O)[nH]c3cc(-c4ccccc4C(F)(F)F)ccc32)ccc1OC` [WX017], the IC50 is under 0.5 nM.

For `CCOc1cc([C@@H](CS(C)(=O)=O)n2c(=O)[nH]c3cc(-c4ccccc4C(C)C)ccc32)ccc1OC` [WX018], the IC50 is under 0.5 nM.

In the case of `CCOc1cc([C@@H](CS(C)(=O)=O)n2c(=O)[nH]c3cc(-c4ccccc4CC)ccc32)ccc1OC` [WX019], the IC50 is under 0.5 nM.

Regarding `CCOc1cc([C@@H](CS(C)(=O)=O)n2c(=O)n(C3CC3)c3cc(Cl)ccc32)ccc1OC` [WX020], the IC50 was 12.6 nM.

In the case of `CCOc1cc([C@@H](CS(C)(=O)=O)n2c(=O)n(C3CC3)c3cc(F)ccc32)ccc1OC` [WX021], the IC50 was 64.4 nM.

For `CCOc1cc([C@@H](CS(C)(=O)=O)n2c(=O)n(C3CC3)c3cc(C(F)(F)F)ccc32)ccc1OC` [WX022], the IC50 worked out at 39.5 nM.

As for `CCOc1cc([C@@H](CS(C)(=O)=O)n2c(=O)n(C3CC3)c3cc(-c4ccccc4F)ccc32)ccc1OC` [WX023], the IC50 was 1.89 nM.

With `CCOc1cc([C@@H](CS(C)(=O)=O)n2c(=O)[nH]c3cc(-c4ccccc4OCC)ccc32)ccc1OC` [WX024], the IC50 is under 0.5 nM.

In the case of `CCOc1cc([C@@H](CS(C)(=O)=O)n2c(=O)[nH]c3cc(-c4ncccc4F)ccc32)ccc1OC` [WX025], the IC50 was 1.42 nM.

Consider `CCOc1cc([C@@H](CS(C)(=O)=O)n2c(=O)[nH]c3cc(-c4nccnc4C)ccc32)ccc1OC` [WX026], for which the IC50 was found to be 8.44 nM.

Take `CCOc1cc([C@@H](CS(C)(=O)=O)n2c(=O)[nH]c3cc(-c4nnccc4C)ccc32)ccc1OC` [WX027]: the IC50 came to 17.8 nM.

Regarding `CCOc1cc([C@@H](CS(C)(=O)=O)n2c(=O)[nH]c3cc(-c4ccccc4C#N)ccc32)ccc1OC` [WX028], the IC50 is under 0.5 nM.

For `CCOc1cc([C@@H](CS(C)(=O)=O)n2c(=O)[nH]c3cc(-c4nccnc4N(C)C)ccc32)ccc1OC` [WX029], the IC50 was under 0.5 nM.

With `CCOc1cc([C@@H](CS(C)(=O)=O)n2c(=O)[nH]c3cc(-c4nccnc4C4CC4)ccc32)ccc1OC` [WX030], the IC50 was 1.31 nM.

For `CCOC(=O)c1ccc2c(c1)[nH]c(=O)n2[C@H](CS(C)(=O)=O)c1ccc(OC)c(OCC)c1` [WX031], the IC50 is 3.3 nM.

Turning to `CCOc1cc([C@@H](CS(C)(=O)=O)n2c(=O)[nH]c3cc(C(=O)OC(C)C)ccc32)ccc1OC` [WX032], the half-inhibitory concentration (IC50) is 2.05 nM.

For `CCOc1cc([C@@H](CS(C)(=O)=O)n2c(=O)[nH]c3cc(C(=O)OCC(F)(F)F)ccc32)ccc1OC` [WX033], the IC50 worked out at 1.1 nM.

As to `CCOc1cc([C@@H](CS(C)(=O)=O)n2c(=O)[nH]c3cc(C(=O)O)ccc32)ccc1OC` [WX034], the IC50 turned out to be 22.4 nM.

As for `CCOc1cc([C@@H](CS(C)(=O)=O)n2c(=O)[nH]c3cc(C(=O)CC)ccc32)ccc1OC` [WX035], the IC50 came to 8.3 nM.

In the case of `CCOc1cc([C@@H](CS(C)(=O)=O)n2c(=O)n(CC(F)F)c3cc(Cl)ccc32)ccc1OC` [WX036], the IC50 came out at 9.12 nM.

`CCOc1cc([C@@H](CS(C)(=O)=O)n2c(=O)n(CC(F)(F)F)c3cc(Cl)ccc32)ccc1OC` [WX037]: the IC50 amounted to 10.8 nM.

For `CCOc1cc([C@@H](CS(C)(=O)=O)n2c(=O)n(C)c3cc(Cl)ccc32)ccc1OC` [WX038], the IC50 stood at 7.99 nM.

Take `CCOc1cc([C@@H](CS(C)(=O)=O)n2c(=O)n(CC)c3cc(Cl)ccc32)ccc1OC` [WX039]: the IC50 was 9.96 nM.

Consider `CCOc1cc([C@@H](CS(C)(=O)=O)n2c(=O)n(CC3CC3)c3cc(Cl)ccc32)ccc1OC` [WX040], for which the IC50 is 7.54 nM.

Regarding `CCOc1cc([C@@H](CS(C)(=O)=O)n2c(=O)n(CC3CCC3)c3cc(Cl)ccc32)ccc1OC` [WX041], the IC50 amounted to 11.9 nM.

As to `CCOc1cc([C@@H](CS(C)(=O)=O)n2c(=O)n(CCOC)c3cc(Cl)ccc32)ccc1OC` [WX042], the IC50 was determined as 6.83 nM.

`CCOc1cc([C@@H](CS(C)(=O)=O)n2c(=O)n(CCO)c3cc(Cl)ccc32)ccc1OC` [WX043]: the IC50 stood at 4.5 nM.

In the case of `CCOc1cc([C@@H](CS(C)(=O)=O)n2c(=O)n(C(C)C)c3cc(Cl)ccc32)ccc1OC` [WX044], the IC50 is 5.12 nM.

In the case of `CCOc1cc([C@@H](CS(C)(=O)=O)n2c(=O)n(CC#N)c3cc(Cl)ccc32)ccc1OC` [WX045], the IC50 came to 3.56 nM.

Consider `CCOc1cc([C@@H](CS(C)(=O)=O)n2c(=O)n(CC(F)F)c3cc(F)ccc32)ccc1OC` [WX046], for which the IC50 turned out to be 10.1 nM.

For the compound `CCOc1cc([C@@H](CS(C)(=O)=O)n2c(=O)n(CC(F)(F)F)c3cc(F)ccc32)ccc1OC` [WX047], the IC50 turned out to be 44.9 nM.

Turning to `CCOc1cc([C@@H](CS(C)(=O)=O)n2c(=O)n(C)c3cc(F)ccc32)ccc1OC` [WX048], the IC50 was found to be 57.8 nM.

Take `CCOc1cc([C@@H](CS(C)(=O)=O)n2c(=O)n(CC#N)c3cc(F)ccc32)ccc1OC` [WX049]: the IC50 turned out to be 11.4 nM.

Take `CCOc1cc([C@@H](CS(C)(=O)=O)n2c(=O)n(CCO)c3cc(F)ccc32)ccc1OC` [WX050]: the IC50 was 30.6 nM.
